For assay [1], the target named is T1, Alpha-2B adrenergic receptor (Homo sapiens) (UniProt P18089).
T1 sequence (whole entry): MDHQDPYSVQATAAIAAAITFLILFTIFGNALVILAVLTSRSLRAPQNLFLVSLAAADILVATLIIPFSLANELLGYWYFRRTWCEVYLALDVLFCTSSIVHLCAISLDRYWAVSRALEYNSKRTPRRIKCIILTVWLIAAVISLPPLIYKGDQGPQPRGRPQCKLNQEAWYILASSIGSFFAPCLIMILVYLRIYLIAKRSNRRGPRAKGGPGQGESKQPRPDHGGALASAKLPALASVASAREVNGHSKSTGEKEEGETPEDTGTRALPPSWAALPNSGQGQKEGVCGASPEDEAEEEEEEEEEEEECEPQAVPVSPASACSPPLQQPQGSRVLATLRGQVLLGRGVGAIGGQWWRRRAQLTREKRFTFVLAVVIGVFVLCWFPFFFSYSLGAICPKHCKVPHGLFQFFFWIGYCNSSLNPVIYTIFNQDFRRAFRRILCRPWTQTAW
Description: Agonist activity at human adrenergic alpha2B receptor expressed in HEK293 cells coexpressing Gqi5 protein up to 83 uM by FLIPR assay. Format: functional, cell-based.

Assay [2] concerns the target T2, Alpha-2B adrenergic receptor (Homo sapiens, UniProt P18089).
T2 sequence (P18089 whole entry): T1 sequence (whole entry)
Nature of the assay: Agonist activity at human adrenergic alpha2B receptor expressed in HEK293 cells coexpressing Gqi5 protein by FLIPR assay. Format: functional, cell-based.

SMILES strings stand for the structures. The source made the active and inactive calls. The calls are words filed in the database; no cut-off is given here.

The text below walks through data of ChEMBL document CHEMBL1153930, “(-)-Dibromophakellin: an alpha2B adrenoceptor agonist isolated from the Australian marine sponge, Acanthella costata” (Bioorg Med Chem, 2009).

`NC1=N[C@]23CCCN2C(=O)c2cc(-c4ccccc4)c(-c4ccccc4)n2[C@@H]3N1`: the outcome in assay [1] was inactive.

With `NC1=N[C@]23CCCN2C(=O)c2cc(Br)c(-c4ccccc4)n2[C@@H]3N1`, the result in assay [1] was inactive.

One may read the EC50 as the concentration needed to bring the measured effect to its halfway point. A lower EC50 goes with a more potent agent. With `NC1=N[C@H]2n3c(cc(Br)c3Br)C(=O)N3CCC[C@]23N1` [DIBROMOPHAKELLIN], the 50% effective concentration (EC50) in assay [2] came to 4.2 µM.

`NC1=N[C@]23CCCN2C(=O)c2cc(Br)cn2[C@@H]3N1`: the outcome in assay [1] was inactive.

As for `NC1=N[C@]23CCCN2C(=O)c2cccn2[C@@H]3N1`, the result in assay [1] was inactive.
